Experiment [1] has as its system patients diagnosed with osteoarthritis of the knee. Briefly: Filipino study: WOMAC osteoarthritis index, Likert version. In kind it is in vivo, human. Conditions: Likert 0-4. Here is the method: Experimental, randomized, single blind observer, open-labeled, controlled trial. […] Group A subjects were given the oral collagen supplement (Genacol®, Blainville, Qc, Canada) 400 mg/capsule, 3 capsules daily at bedtime for 6 months, and a topical analgesic needed for knee pain. Group B, the control group, received the standard treatment using an oral non-steroidal inflammatory drug, in the form of aceclofenac 100 mg/tablet, 1 tablet twice a day for 5 days initially then as needed for pain, and topical analgesic (ketoprofen gel) to be applied twice a day as needed for pain. Both groups underwent physical therapy three times a week for two weeks. Heating modalities, range of motion exercises, and muscle strengthening exercises were administered on each therapy session. Follow up evaluation was done every month. On the sixth month of follow up, repeat radiography evaluation of the involved knee was done to determine if there were any changes in the knee joint. Compliance to the study medication was determined by asking the patient on their missed doses and by counting the remaining unconsumed capsules. Symptoms of osteoarthritis were assessed using the Western Ontario and McMaster Universities (WOMAC) osteoarthritis index, a validated and disease-specific questionnaire separately addressing severity of joint pain (5 questions), stiffness (2 questions), and limitation of physical function (17 questions) in the 48 hours before assessment. The Likert Version of WOMAC is rated on an ordinal scale of 0 to 4 with lower scores indicating lower levels of symptoms or physical disability. […] There is also an index score or global score, which is most commonly calculated by summating the scores for the 3 subscales. The questionnaire is self administered and takes 5 to 10 minutes to complete. Data was presented as mean±SD or frequency and percent distribution whichever was applicable. Chi square test was performed to indicate any significant difference in the distribution of male and female patients between the two groups while t-test was performed to check for any significant difference in characteristics that were continuous variables. Paired sample t-test was used to compare the significance in change in values (WOMAC and medial knee joint space) of the two groups from baseline to the sixth month follow up.

Experiment [2] has the same test system. Description: Filipino study: radiographic medial knee joint space width. Format: in vivo, human. Conditions: weight-bearing anteroposterior radiograph. Here is the method: Group A subjects were given the oral collagen supplement (Genacol®, Blainville, Qc, Canada) 400 mg/capsule, 3 capsules daily at bedtime for 6 months, and a topical analgesic needed for knee pain. Group B, the control group, received the standard treatment using an oral non-steroidal inflammatory drug, in the form of aceclofenac 100 mg/tablet, 1 tablet twice a day for 5 days initially then as needed for pain, and topical analgesic (ketoprofen gel) to be applied twice a day as needed for pain. Both groups underwent physical therapy three times a week for two weeks. Heating modalities, range of motion exercises, and muscle strengthening exercises were administered on each therapy session. Follow up evaluation was done every month. On the sixth month of follow up, repeat radiography evaluation of the involved knee was done to determine if there were any changes in the knee joint. Compliance to the study medication was determined by asking the patient on their missed doses and by counting the remaining unconsumed capsules. […] Using a standard ruler in millimeters, one experienced radiologist who was blinded as to the treatment of each subject measured the narrowest medial compartment of the tibiofemoral joint of each radiographed knee done at the start of the study. […]

For the compound `O=C(O)COC(=O)Cc1ccccc1Nc1c(Cl)cccc1Cl` [Group B, aceclofenac], the “WOMAC Score, mean” value in experiment [1] (2nd ff-up (monthly follow-up)) was 2.42; in experiment [1] (3rd ff-up (monthly follow-up)) it was 2.29; in experiment [1] (4th ff-up (monthly follow-up)), 2.26; in experiment [1] (5th ff-up (monthly follow-up)), 2.17; in experiment [1] (6th ff-up (sixth month)), 1.87; in experiment [1] (Baseline, Group A n=55, Group B n=58) it was 2.91. Further, the “Median Knee Joint Space, mean” value is recorded as 3.8 mm in experiment [2] (6th ff-up (sixth month)) and 4.3 mm in experiment [2] (Baseline).

The values are drawn from US11040081B2 (CORPORATION GENACOL CANADA INC., priority 2016, dated 2021).
